Measurements published in US20220125959A1, “PROSTATE-SPECIFIC MEMBRANE ANTIGEN (PSMA) INHIBITORS AS DIAGNOSTIC AND RADIONUCLIDE THERAPEUTIC AGENTS” (FIVE ELEVEN PHARMA INC., priority 2019, published 2022).
Read-outs that look alike come from different tables or passages of the source.

Key:
PSMA = PSMA (Homo sapiens, UniProt Q04609); assay: PSMA competitive binding, PC-3 PIP cells with [125I]MIP-1095; design: expressed in transfected cells; host or cells: PC-3 PIP cells
Description: In vitro binding assays were carried out to determine the PSMA binding affinity of various compounds. By incubating PSMA positive cells either with: 1). LNCaP with 0.2 nM [^68Ga]PSMA-11 or [^125I]MIP-1095, as the ligand, in the presence of 10 different concentrations of competing ligands; non-specific binding was defined with 20 μM 2-PMPA (2-(phosphonomethyl)pentanedioic acid); or 2). PC-3 PIP cells with [^125I]MIP-1095 (0.18 nM diluted in PBS) in presence of different concentration of test compounds ([…] diluted in PBS containing 0.1% bovine serum albumin). Nonspecific binding (NSB) was defined with 2 μM the known PSMA inhibitor, PSMA-617. After incubation at 37° C. for 1 h, the bound and free fractions were separated by vacuum filtration through GF/B filters using a Brandel M-24R cell harvester. The filters were washed twice with cold Tris-HCl buffer (50 mM, pH=7.4), and the radioactivity on the filters was counted in a gamma counter (Wizard^2, Perkin-Elmer) with 50% efficiency. The nonspecific bound was less than 10% of the total bound. Data were analyzed using GraphPad Prism 6.0 with a nonlinear regression algorithm to obtain the half maximal inhibitory concentration (IC50).
The binding affinities to PSMA of the test compounds were measured by a competitive binding assay using either LNCap or PC-3 PIP cells suspension and the known radiotracers known to have high affinity and specificity to PSMA, [^68Ga]PSMA-11 or [^125I]MIP-1095. The IC50 values of four iodinated compounds, three DOTA, DOTAG and DOTA(GA)2 related compounds and two known PSMA inhibitors are shown in Table 1. Complexes of compound 4 and natural Ga and natural Lu were also tested. […] After labeling with radioisotope they are expected to bind to the tumor tissues over expressing PSMA binding sites.

PIP tumor and PC3 tumor = assay: Biodistribution of 125I labeled compounds 17, 18, 26 and 27 in tumor bearing nude mice; assay type: in vivo; details: for Biodistribution: Bladder* / Biodistribution: Stomach* / Biodistribution: large intestine* / Biodistribution: small intestine*: organ with content; for PIP/blood / PIP/muscle: ratio
Description: Radioiodination and Purification: 100 μg of either precursor 13, 14, 22 or 23 were dissolved in 100 μL EtOH; 22 μL Na^125I (1033-1118 μCi in 0.1 N NaOH), 100 μL 1N HCl and 100 μL 3% H2O2 were added. After 15 minutes at room temperature, the reaction was stopped by adding 150 μL sat. NaHSO3. The reaction mixture was slowly added to 1.5 mL sat. NaHCO3. Vial was rinsed with 1000 μL EtOH and mixture was diluted further to 10 mL mL water. The active sample was transferred onto an activated C4 mini column. The mixture was pushed through, washed twice with 3 mL water and the product was eluted with 1 mL ACN. Added 100 μL DMSO. The mixture was concentrated to ˜100 μL and purified by HPLC (Agilent Eclipse XCD C18 150×4.6 mm, 5 μm; 4 mL/min, gradient (ACN and water; 0-1 min (20/80), 1-16 min (20/80-100/0), 16-16.5 min (100/0-20/80), 16.5-20 min 20/80) (collected every minute). The sample was blown to dryness under argon, re-dissolved in 500 μL CH2Cl2 and 1 mL TFA was added at room temperature. After 1 hr the solution was blown to dryness and activity taken into 1 mL EtOH (10 μL saturated ascorbic acid/EtOH was added). Isolated activities for [^125I]17, 18, 26, and 27 were 197, 189, 600 and 197 μCi respectively. A representative picture of HPLC profiles (FIG. 3) for radiolabeled protected (intermediate), cold standard and radioactive trace of final compound is shown for [^125I]26.
For iv injection 150 μL of labeled solution was diluted with saline to 3.75 mL. Mice were injected with 2˜3 μCi of [^125I]18, 27, 26, and 18 in 0.15 mL saline. Injected radioactivity was 2 to 3 μCi.
Biodistribution study of [^125I]18, 27, 26, and 18 in tumor bearing nude mice were evaluated for their ability to localization of PSMA positive tumor (Tables 5, 6, 7 and 8). It was observed that [^125I]26 and [^125I] […] These new agents are valuable for radionuclide therapy, when labeled with beta or alpha-emitting isotopes; but these agents will also be useful as diagnostic agents when labeled with gamma-emitting isotopes.

[1] = n = 3 (a: n = 2), read-out: IC50 *(PC-3 PIP cells and [125I]MIP-1095)

PSMA, sequence (Q04609 whole entry, species assumed): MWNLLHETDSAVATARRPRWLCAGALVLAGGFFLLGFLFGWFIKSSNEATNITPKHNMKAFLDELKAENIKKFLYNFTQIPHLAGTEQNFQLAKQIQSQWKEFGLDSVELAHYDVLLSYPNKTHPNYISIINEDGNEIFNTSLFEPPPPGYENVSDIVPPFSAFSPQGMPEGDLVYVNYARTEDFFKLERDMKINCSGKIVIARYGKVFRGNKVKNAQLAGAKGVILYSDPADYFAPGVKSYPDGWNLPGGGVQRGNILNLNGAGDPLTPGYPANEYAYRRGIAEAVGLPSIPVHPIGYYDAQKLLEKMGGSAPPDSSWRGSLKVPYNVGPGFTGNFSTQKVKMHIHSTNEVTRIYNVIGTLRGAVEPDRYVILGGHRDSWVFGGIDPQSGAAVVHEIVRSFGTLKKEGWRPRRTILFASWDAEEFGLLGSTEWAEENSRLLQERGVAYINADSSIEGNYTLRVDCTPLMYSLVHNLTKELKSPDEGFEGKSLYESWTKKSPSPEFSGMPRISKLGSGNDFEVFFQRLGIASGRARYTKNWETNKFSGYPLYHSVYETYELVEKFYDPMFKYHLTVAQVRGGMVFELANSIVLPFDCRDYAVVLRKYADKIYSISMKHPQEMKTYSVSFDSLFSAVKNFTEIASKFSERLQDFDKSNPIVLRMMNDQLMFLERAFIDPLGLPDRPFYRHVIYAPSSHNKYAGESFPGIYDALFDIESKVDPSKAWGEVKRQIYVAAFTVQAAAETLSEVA

O=C(O)CC[C@H](NC(=O)N[C@@H](CCCCNC(=O)[C@H](Cc1ccccc1)NC(=O)[C@H](CCC(=O)O)NC(=O)c1ccc(I)cc1)C(=O)O)C(=O)O [Compound 17, (((S)-1-Carboxy-5-((S)-2-((S)-4-carboxy-2-(4-iodobenzamido)butanamido)-3-phenylpropanamido)pentyl)carbamoyl)-L-glutamic acid]
IC50 (PSMA; [1]): 2.63 ± 0.13 nM

O=C(O)CCC(C(=O)O)N1CCN(CC(=O)O)CCN(C(CCC(=O)N[C@@H](CCC(=O)O)C(=O)N[C@@H](CCC(=O)O)C(=O)N[C@@H](Cc2ccc(OCC(=O)N[C@@H](Cc3ccccc3)C(=O)NCCCC[C@H](NC(=O)N[C@@H](CCC(=O)O)C(=O)O)C(=O)O)cc2)C(=O)O)C(=O)O)CCN(CC(=O)O)CC1 (stereo partly drawn) [Compound 29, (((1S)-5-((2S)-2-(2-(4-((2S)-2-((2S)-2-((2S)-2-(4-(4,10-Bis(carboxymethyl)-7-(1,3-dicarboxypropyl)-1,4,7,10-tetraazacyclododecan-1-yl)-4-carboxybutanamido)-4-carboxybutanamido)-4-carboxybutanamido)-2-carboxyethyl)phenoxy)acetamido)-3-phenylpropanamido)-1-carboxypentyl)carbamoyl)-L-glutamic acid]
IC50 (PSMA; [1]): 22.6 ± 1.59 nM

O=C(O)CC[C@H](NC(=O)N[C@@H](CCCCNC(=O)[C@H](Cc1ccccc1)NC(=O)COc1ccc(C(=O)NCCCC[C@H](NC(=O)CNC(=O)CCC(C(=O)O)N2CCN(CC(=O)O)CCN(CC(=O)O)CCN(CC(=O)O)CC2)C(=O)O)cc1)C(=O)O)C(=O)O (stereo partly drawn) [Compound 38, (((1S)-1-Carboxy-5-((2S)-2-(2-(4-(((5S)-5-carboxy-5-(2-(4-carboxy-4-(4,7,10-tris(carboxymethyl)-1,4,7,10-tetraazacyclododecan-1-yl)butanamido)acetamido)pentyl)carbamoyl)phenoxy)acetamido)-3-phenylpropanamido)pentyl)carbamoyl)-L-glutamic acid]
IC50 (PSMA; [1]): 28.1 ± 0.85 nM

O=C(O)CC[C@H](NC(=O)N[C@@H](CCCCNC(=O)[C@H](Cc1ccccc1)NC(=O)COc1ccc(C[C@H](NC(=O)[C@H](CCC(=O)O)NC(=O)c2ccc([125I])cc2)C(=O)O)cc1)C(=O)O)C(=O)O [[^125I]26]
Biodistribution: Blood (PIP tumor and PC3 tumor; 1 h): 0.46 ± 0.22 % ID/g | Biodistribution: Bone (PIP tumor and PC3 tumor; 1 h): 0.48 ± 0.11 % ID/g | Biodistribution: Heart (PIP tumor and PC3 tumor; 1 h): 0.73 ± 0.20 % ID/g | Biodistribution: Kidney (PIP tumor and PC3 tumor; 1 h): 174.61 ± 30.65 % ID/g | Biodistribution: Liver (PIP tumor and PC3 tumor; 1 h): 4.61 ± 1.72 % ID/g | Biodistribution: Lung (PIP tumor and PC3 tumor; 1 h): 3.08 ± 0.87 % ID/g | Biodistribution: Muscle (PIP tumor and PC3 tumor; 1 h): 1.72 ± 0.54 % ID/g | Biodistribution: PC3 tumor (PIP tumor and PC3 tumor; 1 h): 2.39 ± 1.42 % ID/g | Biodistribution: PIP tumor (PIP tumor and PC3 tumor; 1 h): 26.19 ± 3.46 % ID/g | Biodistribution: Pancreas (PIP tumor and PC3 tumor; 1 h): 0.98 ± 0.42 % ID/g | Biodistribution: Skin (PIP tumor and PC3 tumor; 1 h): 2.33 ± 0.61 % ID/g | Biodistribution: Spleen (PIP tumor and PC3 tumor; 1 h): 21.66 ± 2.63 % ID/g | Biodistribution: gland (PIP tumor and PC3 tumor; 1 h): 6.97 ± 1.06 % ID/g | Biodistribution: thyroid (PIP tumor and PC3 tumor; 1 h): 13.21 ± 8.48 % ID/g | Biodistribution: Bladder* (PIP tumor and PC3 tumor; 1 h): 14.69 ± 3.80 % ID/g | Biodistribution: Stomach* (PIP tumor and PC3 tumor; 1 h): 0.35 ± 0.11 % ID/g | Biodistribution: large intestine* (PIP tumor and PC3 tumor; 1 h): 1.24 ± 0.79 % ID/g | Biodistribution: small intestine* (PIP tumor and PC3 tumor; 1 h): 1.08 ± 0.63 % ID/g | PIP/blood (PIP tumor and PC3 tumor; 1 h): 66.04 ± 29.31 | PIP/muscle (PIP tumor and PC3 tumor; 1 h): 16.02 ± 3.85 | Biodistribution: Blood (PIP tumor and PC3 tumor; 4 h): 0.21 ± 0.21 % ID/g | Biodistribution: Bone (PIP tumor and PC3 tumor; 4 h): 0.25 ± 0.06 % ID/g | Biodistribution: Heart (PIP tumor and PC3 tumor; 4 h): 0.38 ± 0.23 % ID/g | Biodistribution: Kidney (PIP tumor and PC3 tumor; 4 h): 114.69 ± 32.67 % ID/g | Biodistribution: Liver (PIP tumor and PC3 tumor; 4 h): 4.90 ± 1.80 % ID/g | Biodistribution: Lung (PIP tumor and PC3 tumor; 4 h): 2.08 ± 0.67 % ID/g | Biodistribution: Muscle (PIP tumor and PC3 tumor; 4 h): 0.30 ± 0.19 % ID/g | Biodistribution: PC3 tumor (PIP tumor and PC3 tumor; 4 h): 1.37 ± 0.45 % ID/g | Biodistribution: PIP tumor (PIP tumor and PC3 tumor; 4 h): 14.32 ± 3.87 % ID/g | Biodistribution: Pancreas (PIP tumor and PC3 tumor; 4 h): 0.52 ± 0.26 % ID/g | Biodistribution: Skin (PIP tumor and PC3 tumor; 4 h): 1.67 ± 1.30 % ID/g | Biodistribution: Spleen (PIP tumor and PC3 tumor; 4 h): 15.37 ± 3.26 % ID/g | Biodistribution: gland (PIP tumor and PC3 tumor; 4 h): 2.03 ± 1.29 % ID/g | Biodistribution: thyroid (PIP tumor and PC3 tumor; 4 h): 28.57 ± 10.04 % ID/g | Biodistribution: Bladder* (PIP tumor and PC3 tumor; 4 h): 15.11 ± 4.09 % ID/g | Biodistribution: Stomach* (PIP tumor and PC3 tumor; 4 h): 0.49 ± 0.27 % ID/g | Biodistribution: large intestine* (PIP tumor and PC3 tumor; 4 h): 1.35 ± 0.47 % ID/g | Biodistribution: small intestine* (PIP tumor and PC3 tumor; 4 h): 0.30 ± 0.11 % ID/g | PIP/blood (PIP tumor and PC3 tumor; 4 h): 104.80 ± 62.05 | PIP/muscle (PIP tumor and PC3 tumor; 4 h): 60.91 ± 38.35 | Liver uptakes (PIP tumor and PC3 tumor; mouse, in vivo): low | Uptakes in PIP tumors, kidneys and spleen compared to [125I]17 and [125I]18 (PIP tumor and PC3 tumor; mouse, in vivo): higher uptakes | Washout in PIP tumors, kidneys and spleen compared to [125I]18 and [125I]27 (PIP tumor and PC3 tumor; mouse, in vivo): significantly faster washout

O=C(O)CCc1ccc(O)c(CN(CCN(CC(=O)O)Cc2cc(CCC(=O)NCCCCCC(=O)NCCCC[C@H](NC(=O)N[C@@H](CCC(=O)O)C(=O)O)C(=O)O)ccc2O)CC(=O)O)c1 [PSMA-11, Glu-NH—CO—NH-Lys-(Ahx)-(HBED-CC), reference compound]
IC50 (PSMA; [1]): 47.8 ± 3.16 nM

O=C(O)CC[C@H](NC(=O)N[C@@H](CCCCNC(=O)[C@H](Cc1ccccc1)NC(=O)COc1ccc(C[C@H](NC(=O)CNC(=O)CCC2C(=O)[O][Lu-4]345678[O]C(=O)CN9CC[N+]23CC[N+]4(CC[N+]5(CC9)C(CCC(=O)[OH+]6)C(=O)[O]7)CC(=O)[O]8)C(=O)O)cc1)C(=O)O)C(=O)O (stereo partly drawn) [[^natLu]4]
IC50 (PSMA): 18.7 ± 0.3 nM

O=C(O)CC[C@H](NC(=O)N[C@@H](CCCCNC(=O)[C@H](Cc1ccccc1)NC(=O)[C@H](CCC(=O)O)NC(=O)[C@H](CCC(=O)O)NC(=O)c1ccc(I)cc1)C(=O)O)C(=O)O [Compound 18, (((S)-1-Carboxy-5-((S)-2-((S)-4-carboxy-2-((S)-4-carboxy-2-(4-iodobenzamido)butanamido)butanamido)-3-phenylpropanamido)pentyl)carbamoyl)-L-glutamic acid]
IC50 (PSMA; [1]): 1.99 ± 0.06 nM

O=C(O)CC[C@H](NC(=O)N[C@@H](CCCCNC(=O)[C@H](Cc1ccccc1)NC(=O)COc1ccc(C[C@H](NC(=O)[C@H](CCC(=O)O)NC(=O)c2ccc(I)cc2)C(=O)O)cc1)C(=O)O)C(=O)O [Compound 26, (((S)-1-Carboxy-5-((S)-2-(2-(4-((S)-2-carboxy-2-((S)-4-carboxy-2-(4-iodobenzamido)butanamido)ethyl)phenoxy)acetamido)-3-phenylpropanamido)pentyl)carbamoyl)-L-glutamic acid]
IC50 (PSMA; [1]): 4.74 ± 0.37 nM

O=C([O-])CN1CCN(C(CCC(=O)NCC(=O)N[C@@H](Cc2ccc(OCC(=O)N[C@@H](Cc3ccccc3)C(=O)NCCCC[C@H](NC(=O)N[C@@H](CCC(=O)O)C(=O)O)C(=O)O)cc2)C(=O)O)C(=O)[O-])CCN(CC(=O)[O-])CCN(C(CCC(=O)O)C(=O)O)CC1.[Ga+3] (stereo partly drawn) [[^natGa]4, (4S,11S,15S)-4-benzyl-1-(4-((2S)-2-(2-(4-(4,10-bis(carboxymethyl)-7-(1,3-dicarboxypropyl)-1,4,7,10-tetraazacyclododecan-1-yl)-4-carboxylatebutanamido)acetamido)-2-carboxyethyl)phenoxy)-2,5,13-trioxo-3,6,12,14-tetraazaheptadecane-11,15,17-tricarboxylate gallium]
IC50 (PSMA; [1]): 22.2 ± 2.1 nM
